Test results reported in patent US20240148723A1, “MYCOBACTERIUM TUBERCULOSIS COMPOSITIONS AND METHODS” (priority 2021, published 2024).
In brackets after ≈: the same amount, converted by molar mass.

System: M. tuberculosis
Type: cell-based, Mycobacterium tuberculosis
Settings: pH 6.8

CCN(CC)CCOc1ccc(C(=C(Cl)c2ccccc2)c2ccccc2)cc1.O=C(O)CC(O)(CC(=O)O)C(=O)O (mixture of isomers) [compound 35770]
MIC in the media 7H9: ≥ 14.95 µg/mL
MIC in the media L-Ala: 1.91 µg/mL
MIC in the media SBA: 1.91 µg/mL
MIC in the media SLac: 0.96 µg/mL

N#CC(c1ccccc1)C(CC(=NO)c1ccccc1)c1ccccc1 (mixture of isomers) [compound 186200]
MIC in the media 7H9: ≥ 136.16 µg/mL
MIC in the media L-Ala: 17.02 µg/mL
MIC in the media SBA: 34.04 µg/mL
MIC in the media SLac: 2.13 µg/mL

COC(=O)c1cccc([N+](=O)[O-])c1 [compound 1327]
MIC in the media 7H9: ≥ 72.48 µg/mL
MIC in the media L-Ala: 9.06 µg/mL (≈ 50 µM)
MIC in the media SBA: 4.53 µg/mL (≈ 25 µM)
MIC in the media SLac: 2.27 µg/mL (≈ 12.5 µM)

NC(=O)c1ccc([N+](=O)[O-])cc1 [compound 2902]
MIC in the media 7H9: ≥ 66.44 µg/mL
MIC in the media L-Ala: 16.61 µg/mL (≈ 100 µM)
MIC in the media SBA: 33.22 µg/mL (≈ 200 µM)
MIC in the media SLac: 8.31 µg/mL (≈ 50 µM)

CC(C)c1ccc2c(c1)CCC1C(C)(C(=O)O)CCCC21C (centres unmarked) [compound 2952]
MIC in the media 7H9: ≥ 30.04 µg/mL
MIC in the media L-Ala: 3.76 µg/mL (≈ 12.5 µM)
MIC in the media SBA: 7.51 µg/mL (≈ 25 µM)
MIC in the media SLac: 1.88 µg/mL (≈ 6.26 µM)

O=Nc1ccc(O)c2ncccc12 [compound 3852]
MIC in the media 7H9: ≥ 4.36 µg/mL
MIC in the media L-Ala: 2.18 µg/mL (≈ 12.5 µM)
MIC in the media SBA: 2.18 µg/mL (≈ 12.5 µM)
MIC in the media SLac: 1.09 µg/mL (≈ 6.26 µM)

Oc1c(Cl)cc(Cl)c2cccnc12 [compound 3904]
MIC in the media 7H9: ≥ 4 µg/mL
MIC in the media L-Ala: 0.03 µg/mL (≈ 0.14 µM)
MIC in the media SBA: 0.03 µg/mL (≈ 0.14 µM)
MIC in the media SLac: 0.03 µg/mL (≈ 0.14 µM)

CCOC(=O)c1ccc([N+](=O)[O-])cc1 [compound 6763]
MIC in the media 7H9: ≥ 78.08 µg/mL
MIC in the media L-Ala: 9.76 µg/mL (≈ 50 µM)
MIC in the media SBA: 4.88 µg/mL (≈ 25 µM)
MIC in the media SLac: 4.88 µg/mL (≈ 25 µM)

COC(=O)c1cc([N+](=O)[O-])cc([N+](=O)[O-])c1 [compound 7317]
MIC in the media 7H9: ≥ 90.44 µg/mL
MIC in the media L-Ala: 11.31 µg/mL (≈ 50 µM)
MIC in the media SBA: 5.65 µg/mL (≈ 25 µM)
MIC in the media SLac: 5.65 µg/mL (≈ 25 µM)

CCC(C)(C)c1ccc(Oc2cccc(C(=O)O)c2)cc1 [compound 7962]
MIC in the media 7H9: ≥ 28.43 µg/mL
MIC in the media L-Ala: 3.55 µg/mL (≈ 12.5 µM)
MIC in the media SBA: 3.55 µg/mL (≈ 12.5 µM)
MIC in the media SLac: 0.45 µg/mL (≈ 1.58 µM)

CN(C)c1ccc(N=Nc2ccccn2)cc1 [compound 9358]
MIC in the media 7H9: ≥ 22.63 µg/mL
MIC in the media L-Ala: 5.66 µg/mL (≈ 25 µM)
MIC in the media SBA: 1.41 µg/mL (≈ 6.23 µM)
MIC in the media SLac: 1.41 µg/mL (≈ 6.23 µM)

N=C(N)c1ccc(OCCCCCOc2ccc(C(=N)N)cc2)cc1 [compound 9921]
MIC in the media 7H9: ≥ 8.51 µg/mL
MIC in the media L-Ala: 2.13 µg/mL (≈ 6.26 µM)
MIC in the media SBA: 4.26 µg/mL (≈ 12.5 µM)
MIC in the media SLac: 1.09 µg/mL (≈ 3.2 µM)

Oc1ccc(Cc2ccccc2Cl)c(O)c1 [compound 11149]
MIC in the media 7H9: ≥ 23.47 µg/mL
MIC in the media L-Ala: 5.87 µg/mL (≈ 25 µM)
MIC in the media SBA: 2.93 µg/mL (≈ 12.5 µM)
MIC in the media SLac: 1.47 µg/mL (≈ 6.26 µM)

Oc1ccc(Cc2ccc(Cl)cc2)c(O)c1 [compound 11150]
MIC in the media 7H9: ≥ 23.47 µg/mL
MIC in the media L-Ala: 5.87 µg/mL (≈ 25 µM)
MIC in the media SBA: 2.93 µg/mL (≈ 12.5 µM)
MIC in the media SLac: 1.47 µg/mL (≈ 6.26 µM)

COc1ccc2nc3cc(Cl)ccc3c(Nc3cc(C(C)C)c(O)cc3C)c2c1 [compound 13051]
MIC in the media 7H9: ≥ 20.35 µg/mL
MIC in the media L-Ala: 2.54 µg/mL (≈ 6.24 µM)
MIC in the media SBA: 2.54 µg/mL (≈ 6.24 µM)
MIC in the media SLac: 1.30 µg/mL (≈ 3.19 µM)

NC(=O)c1cccnc1 [compound 13128]
MIC in the media 7H9: ≥ 800 µg/mL
MIC in the media L-Ala: 400 µg/mL (≈ 3280 µM)
MIC in the media SBA: 400 µg/mL (≈ 3280 µM)
MIC in the media SLac: 400 µg/mL (≈ 3280 µM)

COc1cc(N)c2ncccc2c1 [compound 13573]
MIC in the media 7H9: ≥ 8.71 µg/mL
MIC in the media L-Ala: 8.71 µg/mL (≈ 50 µM)
MIC in the media SBA: 8.71 µg/mL (≈ 50 µM)
MIC in the media SLac: 17.42 µg/mL (≈ 100 µM)
